Experiments:
[1] = test system: antibodies isolated from the serum of the first bleed of the rabbit; experiment: affinity column binding of 14C-labeled analytes from aqueous solution; conditions: for binding by the affinity column: 14C-labeled analogs, test of non-specific binding
Procedure: (§1) Affinity Chromatography. The preparation of affinity columns using rabbit antisera was as follows: The rabbit IgG's were purified by passing 5 mL of the antiserum through a column containing 5 mL of the swelled protein A-agarose gel. By monitoring the absorbance at 280 nm in the column effluent, the non-bound proteins were removed by washing with PBS, and the IgG's were then eluted with acetic acid at pH 2.3 (0.58% acetic acid and 0.15 M NaCl). The fractions containing the IgG's were combined and neutralized; based on the UV absorbance at 280 nm (absorbance/1.4 = mg/mL protein), approximately 33 mg of IgG were isolated from 5 mL of serum, which was then lyophilized and stored at -20°C. The reusable protein A-agarose column was stored in PBS containing 0.02% sodium azide at 4°C.
(§2) The protein A-purified IgG was immobilized onto Affigel-10 affinity support. Affigel-10 (5 mL) was washed 3 times with isopropyl alcohol and 3 times with cold distilled water in a Buchner funnel. The gel was then added to a solution of IgG (3 mL in 0.1 M HEPES buffer, pH 7.5) at 4°C. Following 4 hrs of stirring, the gel was precipitated by gentle centrifugation and washed with HEPES buffer (3 x 3 mL). The remaining active sites on the gel were blocked by resuspending the gel in water (2 mL) and adding ethanolamine HCl (0.5 mL, 1M), and stirring the mixture at 22°C for 1 hr. The affinity column was useful in adsorbing alachlor and other analytes from aqueous solutions. After binding the alachlor, the column was washed with water (2 mL/min) to remove unbound material and alachlor was eluted with 75% aqueous methanol.
Using the antibodies isolated from the serum of the first bleed of the rabbit, an affinity column for alachlor was constructed to study its utility as an isolation and purification tool. The IgG's in the serum of the rabbit immunized with the alachlor-IgG conjugate were purified with a protein A-agarose column. The purified IgG was then immobilized onto the Affigel-10 support. Alachlor (¹⁴C-labeled) in aqueous solution was passed through the column with a flow rate of 2 mL/min; the column was washed with water and eluted with 75% aqueous methanol. The radioactivity in the wash and eluent were determined by liquid scintillation counting. […] The capacity of the column was less than 1 µg, and once this level was exceeded, alachlor no longer bound to the column. The recovery of applied radioactivity generally ranged from 80% to 100%. In a second experiment, alachlor (0.5 µg) was dissolved into increasing volumes of water ranging from 1 mL to 100 mL.
To eliminate the possibility of non-specific binding of alachlor to the affinity column, other ¹⁴C-labeled analogs were also studied. These included acetanilide herbicides butachlor, acetochlor, metolachlor, and propachlor and the previously mentioned alachlor metabolites mercapturate and its methyl ester. The affinity column bound butachlor and acetochlor, but not metolachlor, propachlor, or mercapturate.

[2] = test system: antibodies toward amidochlor; experiment: inhibition ELISA for amidochlor; type: binding, rabbits; conditions: standard solutions at 10 and 50 ppb in DI water
Description: The generation of antibodies toward butachlor (2-chloro-2′,6′-diethyl-N-(butoxymethyl)acetanilide), amidochlor (2-chloro-2′,6′-diethyl-N-acetamidomethyl acetanilide), and metolachlor (2-chloro-2′-ethyl-6′-methyl-N-(2-methoxy-1-methylethyl)acetanilide) were accomplished following identical procedures as those described for alachlor. The individual 14C-labeled chloroacetanilide was covalently bound to HSA (human serum albumin) with AHT, and to sheep IgG with AMSA.
The hapten-IgG conjugates were used to immunize rabbits. The corresponding hapten-BSA conjugates were then utilized in checkerboard assays to determine the presence of desired antibodies in the antisera. An inhibition ELISA for butachlor was set up with antiserum, butachlor-HSA screening antigen, and butachlor. Similar assays were also set up for amidochlor and metolachlor.
The sensitivity of the inhibition ELISA for butachlor, amidochlor, and metolachlor was tested with respective standards prepared in DI water. Using the best antiserum, the butachlor ELISA produced an IC50 of 8 ppb.
The specificity of the ELISA for butachlor, amidochlor, and metolachlor were tested using standard solutions of alachlor, acetochlor, butachlor, amidochlor, metolachlor, and propachlor at concentrations of 10 and 50 ppb in DI water. At these concentrations, the ELISA assay for butachlor, amidochlor, and metolachlor was each inhibited only by the respective free hapten, and not by any of the other chloroacetanilides.

[3] = test system: affinity column prepared from the serum of the first bleed of the rabbit immunized with the alachlor-IgG conjugate; experiment: affinity column extraction of alachlor and analogs from human urine; type: binding
Procedure: as §1, with “The fractions containing the IgG's were combined and neutralized; based on the UV absorbance at 280 nm (absorbance/1.4 = mg/mL protein), approximately 33 mg of IgG were isolated from 5 mL of serum, which was then lyophilized and stored at -20°C.” left out
as §2, with “The affinity column was useful in adsorbing alachlor and other analytes from aqueous solutions.” left out

Compound | binding by the affinity column [1] | inhibition of the ELISA assay for amidochlor [2] | % 14C Eluent (75% CH3OH) ([3]; 1.2 µg/2 mL human urine) | % 14C Wash (H2O) ([3]; 1.2 µg/2 mL human urine) | extraction of alachlor by the column ([1]; 0.5 µg per 1 mL to 0.5 µ/50 mL (0.5 ppm to 10 ppb) in water) | efficiency of alachlor extraction by the column reduced by ([1]; 0.5 µg/100 mL (5 ppb) in water) | capacity of the column ([1]; alachlor) | % 14C Eluent (75% CH3OH) ([3]; 0.1 µg/2 mL human urine) | % 14C Wash (H2O) ([3]; 0.1 µg/2 mL human urine) | % 14C Eluent (75% CH3OH) ([3]; 0.6 µg/2 mL human urine) | % 14C Wash (H2O) ([3]; 0.6 µg/2 mL human urine) | % 14C Eluent (75% CH3OH) ([3]; 1.4 µg/2 mL human urine) | % 14C Wash (H2O) ([3]; 1.4 µg/2 mL human urine) | % 14C Eluent (75% CH3OH) ([3]; 1.0 µg/2 mL human urine) | % 14C Wash (H2O) ([3]; 1.0 µg/2 mL human urine)
CC(C)N(C(=O)CCl)c1ccccc1 [Propachlor, propachlor] | not | not | 11.0% | 88.0% |  |  |  |  |  |  |  |  |  |  | 
CCc1cccc(CC)c1N(COC)C(=O)CCl [Alachlor, α-chloro-2′,6′-diethyl-N-methoxymethyl acetanilide] |  | not |  |  | effectively extracted | 50% | less than 1 µg | 123.0% | 20.0% | 69.0% | 11.0% | 48.0% | 37.0% |  | 
CCOCN(C(=O)CCl)c1c(C)cccc1CC [Acetochlor, acetochlor] | bound | not |  |  |  |  |  |  |  |  |  |  |  | 38.0% | 61.0%
